Experimental data from PubChem BioAssay AID248 (DTP/NCI, 2004).
Several values for one entry are separate records, joined by “and”; a condition that tells them apart may be missing. Equal values may be shown once. Toxic doses and inconclusive results are not listed. Cut-off read from the data, not from the text of the source: active = T/C of 150% or more; inactive = T/C below 125%.

System: L1210 leukemia ip in BDF1 mice, survival T/C
Assay: NCI In Vivo Anticancer Drug Screen. Data for tumor model L1210 Leukemia (intraperitoneal) in B6D2F1 (BDF1) mice
Settings: endpoint: mean survival time, higher = longer survival
In short: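 In this screen, tumor-bearing mice given compound are compared to those given vehicle, and their survival values are reported as a treated-to-control quotient.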

[1] = dose: 100.0 mg/kg/injection, schedule: Q01DX009 (ip), vehicle: saline
[2] = dose: 200.0 mg/kg/injection, schedule: Q01DX009 (ip), vehicle: saline
[3] = dose: 400.0 mg/kg/injection, schedule: Q01DX009 (ip), vehicle: saline
[4] = dose: 100.0 mg/kg/injection, schedule: Q01DX001 (ip), vehicle: saline with Tween-80
[5] = dose: 400.0 mg/kg/injection, schedule: Q01DX001 (ip), vehicle: saline with Tween-80
[6] = dose: 100.0 mg/kg/injection, schedule: Q04DX002 (ip), vehicle: Klucel (hydroxypropylcellulose) (HPC)
[7] = dose: 200.0 mg/kg/injection, schedule: Q04DX002 (ip), vehicle: Klucel (hydroxypropylcellulose) (HPC)
[8] = dose: 400.0 mg/kg/injection, schedule: Q04DX002 (ip), vehicle: Klucel (hydroxypropylcellulose) (HPC)
[9] = dose: 100.0 mg/kg/injection, schedule: Q04DX003 (ip), vehicle: saline with Tween-80
[10] = dose: 200.0 mg/kg/injection, schedule: Q04DX003 (ip), vehicle: saline with Tween-80
[11] = dose: 400.0 mg/kg/injection, schedule: Q04DX003 (ip), vehicle: saline with Tween-80

Measured: T/C

CC(C)=NOS(=O)(=O)c1ccc(C)cc1
inactive: dose: 75.0 mg/kg/injection, schedule: Q01DX009 (ip), vehicle: saline 103 % of control | dose: 75.0 mg/kg/injection, schedule: Q04DX003 (ip), vehicle: saline 88 % of control | dose: 150.0 mg/kg/injection, schedule: Q01DX009 (ip), vehicle: saline 98 % of control | dose: 150.0 mg/kg/injection, schedule: Q04DX003 (ip), vehicle: saline 92 % of control | dose: 300.0 mg/kg/injection, schedule: Q01DX009 (ip), vehicle: saline 101 % of control | dose: 300.0 mg/kg/injection, schedule: Q04DX003 (ip), vehicle: saline 88 % of control

Cc1ccccc1S(=O)(=O)CC(Cl)c1ccccc1 (stereo not drawn)
inactive: dose: 100.0 mg/kg/injection, schedule: Q01DX001 (ip), vehicle: saline 102 % of control | [1] 93 % of control | dose: 200.0 mg/kg/injection, schedule: Q01DX001 (ip), vehicle: saline 102 % of control | [2] 91 % of control | dose: 400.0 mg/kg/injection, schedule: Q01DX001 (ip), vehicle: saline 107 % of control | [3] 91 % of control

c1ccc(-c2nnnn2C23CC4CC(CC(C4)C2)C3)cc1
inactive: dose: 100.0 mg/kg/injection, schedule: Q04DX003 (ip), vehicle: saline 98 % of control | dose: 200.0 mg/kg/injection, schedule: Q04DX003 (ip), vehicle: saline 100 % of control | dose: 400.0 mg/kg/injection, schedule: Q04DX003 (ip), vehicle: saline 98 % of control

O=C(Nc1ccc(Cl)cc1[N+](=O)[O-])Oc1ccc(C2CCCCC2)cc1
inactive: dose: 100.0 mg/kg/injection, schedule: Q01DX009 (ip), vehicle: Klucel (hydroxypropylcellulose) (HPC) 93 % of control | dose: 200.0 mg/kg/injection, schedule: Q01DX009 (ip), vehicle: Klucel (hydroxypropylcellulose) (HPC) 89 % of control | dose: 400.0 mg/kg/injection, schedule: Q01DX009 (ip), vehicle: Klucel (hydroxypropylcellulose) (HPC) 88 % of control

CCCCC(CC)C1OCCS1 (stereo not drawn)
inactive: [1] 96 % of control | dose: 100.0 mg/kg/injection, schedule: Q04DX002 (ip), vehicle: saline 96 % of control | [2] 107 % of control | dose: 200.0 mg/kg/injection, schedule: Q04DX002 (ip), vehicle: saline 92 % of control | [3] 104 % of control | dose: 400.0 mg/kg/injection, schedule: Q04DX002 (ip), vehicle: saline 99 % of control

CS(=O)(=O)OCCN(CCOS(C)(=O)=O)c1cccc([N+](=O)[O-])c1
inactive: dose: 1.0 mg/kg/injection, schedule: Q01DX001 (ip), vehicle: saline 101 % of control | dose: 2.0 mg/kg/injection, schedule: Q01DX001 (ip), vehicle: saline 101 % of control | dose: 4.0 mg/kg/injection, schedule: Q01DX001 (ip), vehicle: saline 101 % of control | dose: 8.0 mg/kg/injection, schedule: Q01DX001 (ip), vehicle: saline 102 % of control | dose: 152.0 mg/kg/injection, schedule: Q01DX001 (ip), vehicle: saline 113 % of control | dose: 228.0 mg/kg/injection, schedule: Q01DX015 (ip), vehicle: saline 118 % of control | dose: 342.0 mg/kg/injection, schedule: Q01DX001 (ip), vehicle: saline 95 % of control | dose: 342.0 mg/kg/injection, schedule: Q01DX015 (ip), vehicle: saline 92 % of control | dose: 1024.0 mg/kg/injection, schedule: Q01DX001 (ip), vehicle: saline 102 % of control

Oc1cc2ccc3c(c2cc1O)CCc1cn[nH]c1-3
inactive: [4] 92 % of control | [5] 92 % of control

C1=C(c2ccccc2)N(C2CC2)C(c2ccccc2)=CN1Cc1ccccc1
inactive: [6] 95 % of control | [7] 118 % of control | [8] 103 % of control

Nc1ccc(S(=O)(=O)NC(=O)NCc2ccccc2)cc1
inactive: [9] 101 % of control | [10] 98 % of control | [11] 101 % of control

CN(CCC#N)c1ccc(-c2cc(C(=O)O)c3cc4ccccc4cc3n2)cc1
inactive: [7] 110 % of control | [8] 95 % of control

CP1(=O)CC2OC23CCCCC31 (stereo not drawn)
inactive: dose: 12.5 mg/kg/injection, schedule: Q01DX009 (ip), vehicle: saline 98 % of control | dose: 25.0 mg/kg/injection, schedule: Q01DX009 (ip), vehicle: saline 98 % of control | dose: 50.0 mg/kg/injection, schedule: Q01DX009 (ip), vehicle: saline 102 % of control | dose: 100.0 mg/kg/injection, schedule: Q01DX009 (ip), vehicle: other 109 % of control | [1] 89 % of control | dose: 200.0 mg/kg/injection, schedule: Q01DX009 (ip), vehicle: other 114 % of control

O=c1[nH]cnc2c(C3OC(CO)C(O)C3O)[nH]nc12 (stereo not drawn)
inactive: dose: 10.0 mg/kg/injection, schedule: Q01DX015 (ip), vehicle: carboxymethylcellulose (CMC) 86 % of control | dose: 20.0 mg/kg/injection, schedule: Q01DX015 (ip), vehicle: carboxymethylcellulose (CMC) 88 % of control

CCCNC(=O)Oc1cccc(C)c1
inactive: [6] 100 % of control | [7] 106 % of control | [8] 110 % of control

C(=NCC(CCN1CCCCC1)(CCN1CCCCC1)c1cccc2ccccc12)C(CCN1CCCCC1)(CCN1CCCCC1)c1cccc2ccccc12
inactive: dose: 5.0 mg/kg/injection, schedule: Q04DX003 (ip), vehicle: Klucel (hydroxypropylcellulose) (HPC) 119 % of control | dose: 10.0 mg/kg/injection, schedule: Q04DX003 (ip), vehicle: Klucel (hydroxypropylcellulose) (HPC) 114 % of control | dose: 20.0 mg/kg/injection, schedule: Q04DX003 (ip), vehicle: Klucel (hydroxypropylcellulose) (HPC) 110 % of control

CCc1cccc(CC)c1NC(=O)Nc1cc(Cl)ccc1C
inactive: dose: 25.0 mg/kg/injection, schedule: Q04DX003 (ip), vehicle: saline with Tween-80 94 % of control | dose: 50.0 mg/kg/injection, schedule: Q04DX003 (ip), vehicle: saline with Tween-80 105 % of control and 86 % of control | [4] 105 % of control | dose: 100.0 mg/kg/injection, schedule: Q01DX009 (ip), vehicle: saline with Tween-80 97 % of control and 111 % of control | dose: 100.0 mg/kg/injection, schedule: Q04DX002 (ip), vehicle: saline with Tween-80 95 % of control and 103 % of control | [9] 87 % of control and 91 % of control | dose: 200.0 mg/kg/injection, schedule: Q01DX001 (ip), vehicle: saline with Tween-80 90 % of control | dose: 200.0 mg/kg/injection, schedule: Q01DX009 (ip), vehicle: saline with Tween-80 97 % of control and 113 % of control | dose: 200.0 mg/kg/injection, schedule: Q04DX002 (ip), vehicle: saline with Tween-80 103 % of control | [10] 91 % of control | [5] 89 % of control | dose: 400.0 mg/kg/injection, schedule: Q01DX009 (ip), vehicle: saline with Tween-80 94 % of control and 97 % of control | dose: 400.0 mg/kg/injection, schedule: Q04DX002 (ip), vehicle: saline with Tween-80 98 % of control and 89 % of control | [11] 88 % of control

CCOc1ccc(NC(=O)Oc2cc(C)c(Cl)cc2C(C)C)cc1
inactive: [6] 90 % of control | [7] 110 % of control | [8] 100 % of control

CNC(=O)C1OC(n2cnc3c(N)ncnc32)C(O)C1O (stereo not drawn)
inactive: dose: 0.19 mg/kg/injection, schedule: Q01DX005 (ip), vehicle: saline 110 % of control | dose: 0.19 mg/kg/injection, schedule: Q01DX009 (ip), vehicle: saline 114 % of control | dose: 0.39 mg/kg/injection, schedule: Q01DX005 (ip), vehicle: saline 105 % of control | dose: 0.39 mg/kg/injection, schedule: Q01DX009 (ip), vehicle: saline 93 % of control | dose: 0.78 mg/kg/injection, schedule: Q01DX005 (ip), vehicle: saline 116 % of control | dose: 0.78 mg/kg/injection, schedule: Q01DX009 (ip), vehicle: saline 103 % of control

CN(/N=C/C(O)C(O)C(O)CO)c1ccccc1 (stereo not drawn)
inactive: [1] 95 % of control | [9] 102 % of control and 98 % of control | [2] 90 % of control | [10] 93 % of control and 96 % of control | [11] 94 % of control and 96 % of control

CNC(=O)NCc1cccnc1
inactive: [1] 111 % of control | [2] 103 % of control | [3] 114 % of control
